Legend:
[1] = system: Head lice, Pediculus humanus capitis; assay: Test 1: in-vitro assay with head lice, test substances in basic solution; settings: for Vitality of the lice after 120 min: dead / Vitality of the lice after 360 min: dead: number of dead lice of 5 incubated; for Vitality of the lice after 120 min: dead / Vitality of the lice after 360 min: dead / Vitality of the lice after 30 min: immobile / Vitality of the lice after 120 min: mobile / Vitality of the lice after 360 min: mobile: basic solution; for Vitality of the lice after 30 min: immobile: number of immobile lice of 5 incubated; for Vitality of the lice after 30 min: mobile / Vitality of the lice after 120 min: mobile / Vitality of the lice after 360 min: mobile: number of mobile lice of 5 incubated; for Vitality of the lice after 30 min: mobile: basic solution 10% lauryl glucoside, 5% glycerin, pH 6.0
Protocol: Head lice, Pediculus humanus capitis, were obtained by combing infested children from whom assent and consent from the parents had been obtained.
Lice were used for the experiments mostly immediately, but not later than 4 hours after removing from the head. Adult lice, mixed sexes, were fully immersed in the test solutions for 3 to 15 minutes, then thoroughly rinsed with plenty of water to remove any residuals of the test medication. Three replicates of 5 or 10 lice each, plus one control for each batch of lice, were used for any test formulation. The lice were transferred to dry filter paper and kept for observation for up to 24 hours.
The solutions were formulated by addition of the tests substances listed in Table 1 to a basic solution consisting of 10% lauryl glucoside, 5% glycerin and purified water ad 100% and adjusted to pH 6.0 with citric acid. In each test solution 5 lice were incubated, in the controls consisting of the basic solution without any additions 10 lice were incubated.
“Dead” means that neither movements of the legs nor of the intestine were observed.
At 30 min only mobile or immobile lice were observed, whereas dead lice were observed only at 120 and 360 min.

[2] = system: Aedes aegypti larvae; assay: Naringin against Aedes aegypti larvae, experiments in applicant's laboratory; settings: thousand fold higher concentration of naringin than in the literature, without acetonitrile in the assay
Source text: A putative insecticidal activity of naringin is of interest in the present context.

Row | Structure (SMILES) | Vitality of the lice after 120 min: dead [1] | Vitality of the lice after 360 min: dead [1] | Vitality of the lice after 30 min: immobile [1] | Vitality of the lice after 30 min: mobile [1] | Vitality of the lice after 120 min: mobile [1] | Vitality of the lice after 360 min: mobile [1] | killing of Aedes aegypti larvae [2]
1 | COc1ccc([C@@H]2CC(=O)c3c(O)cc(O)cc3O2)cc1O [1.0% hesperetin, (S)-2,3-dihydro-5,7-dihydroxy-2-(3-hydroxy-4-methoxyphenyl)-4H-1-benzopyran-4-one] | 0 | 0 | 0 | 5 | 5 | 5 | –
2 | C[C@@H]1O[C@@H](O[C@H]2[C@H](Oc3cc(O)c4c(c3)O[C@H](c3ccc(O)cc3)CC4=O)O[C@H](CO)[C@@H](O)[C@@H]2O)[C@H](O)[C@H](O)[C@H]1O [1.0% naringin, 7-[[2-O-(6-desoxy-α-L-mannopyra-nosyl)-β-D-glucopyranosyl]oxy]-2,3-dihydro-5-hydroxy-2-(4-hydroxy-phenyl)-4H-1-benzopyran-4-one] | 0 | 0 | 0 | 5 | 5 | 5 | did not kill
3 | COc1ccc([C@@H]2CC(=O)c3c(O)cc(O[C@@H]4O[C@H](CO[C@@H]5O[C@@H](C)[C@H](O)[C@@H](O)[C@H]5O)[C@@H](O)[C@H](O)[C@H]4O)cc3O2)cc1O [1.0% hesperidin, (2S)-7-((6-O-(6-desoxy-α-L-mannopyranosyl)-β-D-glucopyranosyl)oxy)-2,3-dihydro-5-hydroxy-2-(3-hydroxy-4-methoxyphenyl)-4H-1-benzopyran-4-one] | 0 | 0 | 0 | 5 | 5 | 5 | –
4 | O=C1C[C@@H](c2ccc(O)cc2)Oc2cc(O)cc(O)c21 [1.0% naringenin, (S)-2,3-dihydro-5,7-dihydroxy-2-(4-hydroxyphenyl)-4H-1-benzopyran-4-one] | 0 | 0 | 0 | 5 | 5 | 5 | –
5 | CCCCCCCCCCCCCCCCCCCCCC[N+](C)(C)C.[Cl-] [2.0% behentrim., behentrimonium chloride] | 0 | 0 | 0 | 5 | 5 | 5 | –
6 | CCCCCCCCCCCCCCCC(=O)NCCC[N+](C)(C)C.[Cl-] [2.0% palmitamidopr., palmitamidopropyltrimonium chloride] | 0 | 1 | 0 | 5 | 5 | 4 | –
